{
  "source": "patent US4317775A",
  "about": "(Hoffmann-La Roche Inc., priority 1980, dated 1982)",
  "key": {"Streptococcus pyogenes": {"test_system": "Streptococcus pyogenes", "test": "In vitro activity (MIC/MBC), Streptococcus pyogenes", "format": "cell-based", "excerpt": "(§1) MIC is the Minimum Inhibitory Concentration. MBC is the Minimum Bactericidal Concentration.\n(§2) Results reported in Table 3(a) are reported as MIC defined above and results reported in Table 3(b) are reported as MBC defined above."}, "Staphylococcus aureus": {"test_system": "Staphylococcus aureus", "test": "In vitro activity (MIC/MBC), Staphylococcus aureus", "format": "cell-based", "excerpt": "as §1, §2"}, "Escherichia coli": {"test_system": "Escherichia coli", "test": "In vitro activity (MIC/MBC), Escherichia coli", "format": "cell-based", "excerpt": "as §1, §2"}, "Klebsiella pneumoniae": {"test_system": "Klebsiella pneumoniae", "test": "In vitro activity (MIC/MBC), Klebsiella pneumoniae", "format": "cell-based", "conditions": "for MIC: read-out: Minimum Inhibitory Concentration (MIC)", "excerpt": "as §1, §2"}, "[1]": {"test_system": "Streptococcus pneumonia II", "test": "In vitro activity (MIC/MBC), Streptococcus pneumonia II", "format": "cell-based", "conditions": "Streptococcus pneumoniae; for MBC: read-out: Minimum Inhibitory Concentration (MBC); for MIC: read-out: Minimum Inhibitory Concentration (MIC)", "excerpt": "as §1, §2"}, "S. pyogenes": {"test_system": "S. pyogenes", "test": "In vivo activity against systemic infection in mice, S. pyogenes", "excerpt": "(§3) The PD50 is the protective dose for 50% of the animals treated against a challenge organism."}, "S. pneumoniae I": {"test_system": "S. pneumoniae I", "test": "In vivo activity against systemic infection in mice, S. pneumoniae I", "excerpt": "as §3"}, "E. coli": {"test_system": "E. coli", "test": "In vivo activity against systemic infection in mice, E. coli", "conditions": "in mg/kg", "excerpt": "as §3"}, "K. pneumoniae": {"test_system": "K. pneumoniae", "test": "In vivo activity against systemic infection in mice, K. pneumoniae", "conditions": "in mg/kg", "excerpt": "as §3"}, "S. aureus": {"test_system": "S. aureus", "test": "In vivo activity against systemic infection in mice, S. aureus", "conditions": "in mg/kg", "excerpt": "as §3"}, "S. pneumoniae II": {"test_system": "S. pneumoniae II", "test": "In vivo activity against systemic infection in mice, S. pneumoniae II", "excerpt": "as §3"}, "P. mirabilis": {"test_system": "P. mirabilis", "test": "In vivo activity against systemic infection in mice, P. mirabilis", "conditions": "in mg/kg", "excerpt": "as §3"}, "in vivo": {"test": "in vivo", "conditions": "mouse"}, "[2]": {"test_system": "Streptococcus pneumoniae I", "test": "In vitro activity (MIC/MBC), Streptococcus pneumoniae I", "format": "cell-based", "conditions": "MBC, read-out: Minimum Inhibitory Concentration (MBC)", "excerpt": "as §1, §2"}, "[3]": {"test_system": "Salmonella schottmuelleri", "test": "In vitro activity (MIC/MBC), Salmonella schottmuelleri", "format": "cell-based", "excerpt": "as §1, §2"}, "Salmonella typhosa": {"test_system": "Salmonella typhosa", "test": "In vitro activity (MIC/MBC), Salmonella typhosa", "format": "cell-based", "conditions": "Salmonella enterica", "excerpt": "as §1, §2"}, "Proteus vulgari": {"test_system": "Proteus vulgari", "test": "In vitro activity (MIC/MBC), Proteus vulgari", "format": "cell-based", "excerpt": "as §1, §2"}, "P. aeruginosa": {"test_system": "P. aeruginosa", "test": "In vivo activity against systemic infection in mice, P. aeruginosa", "excerpt": "as §3"}, "[4]": {"conditions": "MBC, read-out: Minimum Inhibitory Concentration (MBC)"}, "[5]": {"conditions": "read-out: Minimum Inhibitory Concentration (MIC)"}},
  "note": "Values joined by “and” are separate entries in the source; they are usually repeats but may differ in a detail not shown here. Equal values may be shown once. Where a name gives a salt, the structure may show the parent alone. Read-outs that look alike come from different tables or passages of the source.",
  "data": [
    {"smiles": "CCC1CC(F)C(N(C2OC(CC)CC2F)[C@@H](C(=O)N[C@@H]2C(=O)N3[C@@H]2SC(C)(C)[C@@H]3C(=O)O)c2ccc(O)cc2)O1", "note": "(relative stereo) [Compound IV, {2S-[2α,5α,6β(S*)]}-6-{bis[5-ethyl-3-fluoro-2-tetrahydrofuranylamino-(4-hydrophenyl)-acetyl]amino}-3,3-dimethyl-7-oxo-4-thia-1-azabicyclo-[3.2.0]heptane-2-carboxylic acid sodium salt]", "values": [
      {"measurement": "MBC", "setting": "Streptococcus pyogenes; [4]", "value": "> 0.218", "unit": "µg/mL"},
      {"measurement": "MIC", "setting": "Streptococcus pyogenes; [5]", "value": 0.027, "unit": "µg/mL"},
      {"measurement": "MBC", "setting": "Staphylococcus aureus; [4]", "value": 0.055, "unit": "µg/mL"},
      {"measurement": "MIC", "setting": "Staphylococcus aureus; [5]", "value": 0.055, "unit": "µg/mL"},
      {"measurement": "MBC", "setting": "Escherichia coli; [4]", "value": 3.5, "unit": "µg/mL"},
      {"measurement": "MIC", "setting": "Escherichia coli; [5]", "value": 3.5, "unit": "µg/mL"},
      {"measurement": "MBC", "setting": "Klebsiella pneumoniae; [4]", "value": 0.437, "unit": "µg/mL"},
      {"measurement": "MIC", "setting": "Klebsiella pneumoniae", "value": 0.218, "unit": "µg/mL"},
      {"measurement": "MBC", "setting": "[1]", "value": 0.027, "unit": "µg/mL"},
      {"measurement": "MIC", "setting": "[1]", "value": 0.013, "unit": "µg/mL"},
      {"measurement": "PD50", "setting": "S. pyogenes; oral", "value": 6, "unit": "mg/kg"},
      {"measurement": "PD50", "setting": "S. pyogenes; subcutaneous", "value": 4.4, "unit": "mg/kg"},
      {"measurement": "PD50", "setting": "S. pneumoniae I; oral", "value": 0.7, "unit": "mg/kg"},
      {"measurement": "PD50", "setting": "S. pneumoniae I; subcutaneous", "value": 0.9, "unit": "mg/kg"},
      {"measurement": "PD50", "setting": "E. coli; oral", "value": 22.1},
      {"measurement": "PD50", "setting": "E. coli; subcutaneous", "value": 10.4},
      {"measurement": "PD50", "setting": "K. pneumoniae; oral", "value": 4.8},
      {"measurement": "PD50", "setting": "K. pneumoniae; subcutaneous", "value": 2.4},
      {"measurement": "PD50", "setting": "S. aureus; oral", "value": 1.2},
      {"measurement": "PD50", "setting": "S. aureus; subcutaneous", "value": 0.34},
      {"measurement": "PD50", "setting": "S. pneumoniae II; oral", "value": 0.7, "unit": "mg/kg"},
      {"measurement": "PD50", "setting": "S. pneumoniae II; subcutaneous", "value": 0.5, "unit": "mg/kg"},
      {"measurement": "PD50", "setting": "P. mirabilis; oral", "value": 1.6},
      {"measurement": "PD50", "setting": "P. mirabilis; subcutaneous", "value": 0.4},
      {"measurement": "LD50", "setting": "in vivo; ip", "value": 3520, "unit": "mg/kg"},
      {"measurement": "LD50", "setting": "in vivo; po", "value": 3960, "unit": "mg/kg"},
      {"measurement": "LD50", "setting": "in vivo; sc", "value": 2800, "unit": "mg/kg"}
    ]},
    {"smiles": "CC1(C)S[C@@H]2[C@H](NC(=O)[C@H](N)c3ccc(O)cc3)C(=O)N2[C@H]1C(=O)O", "note": "[Amoxicillin, amoxicillin, reference compound]", "values": [
      {"measurement": "MBC", "setting": "[2]", "value": 0.024, "unit": "µg/mL"},
      {"measurement": "MIC", "setting": "Escherichia coli; [5]", "value": 3.12, "unit": "µg/mL"},
      {"measurement": "MIC", "setting": "Escherichia coli; read-out: Minimum Inhibitory Concentration (MIC), Escherichia coli", "value": 6.25, "unit": "µg/mL"},
      {"measurement": "MIC", "setting": "Klebsiella pneumoniae", "value": 0.39, "unit": "µg/mL"},
      {"measurement": "MBC", "setting": "[3]; MBC, Salmonella schottmuelleri, read-out: Minimum Inhibitory Concentration (MBC)", "value": 0.78, "unit": "µg/mL"},
      {"measurement": "MIC", "setting": "[3]; Salmonella, read-out: Minimum Inhibitory Concentration (MIC)", "value": 0.78, "unit": "µg/mL"},
      {"measurement": "MBC", "setting": "Salmonella typhosa; read-out: Minimum Inhibitory Concentration (MBC), MBC, Salmonella typhosa", "value": 0.39, "unit": "µg/mL"},
      {"measurement": "MIC", "setting": "Salmonella typhosa; read-out: Minimum Inhibitory Concentration (MIC), Salmonella typhosa", "value": 0.39, "unit": "µg/mL"},
      {"measurement": "MBC", "setting": "Proteus vulgari; [4]", "value": 0.78, "unit": "µg/mL"},
      {"measurement": "MIC", "setting": "Proteus vulgari; [5]", "value": 1.56, "unit": "µg/mL"},
      {"measurement": "MBC", "setting": "[1]", "value": 0.049, "unit": "µg/mL"},
      {"measurement": "MIC", "setting": "[1]", "value": 0.024, "unit": "µg/mL"},
      {"measurement": "PD50", "setting": "E. coli; oral", "value": "14.1 and 18.5 and 19.3 and 13.1"},
      {"measurement": "PD50", "setting": "E. coli; subcutaneous", "value": "10 and 5.9 and 7.3 and 6.8"},
      {"measurement": "PD50", "setting": "K. pneumoniae; subcutaneous", "value": "3.6 and 5 and 3.7"},
      {"measurement": "PD50", "setting": "S. aureus; oral", "value": "0.5 and 0.6"},
      {"measurement": "PD50", "setting": "S. aureus; subcutaneous", "value": "< 0.2"},
      {"measurement": "PD50", "setting": "P. mirabilis; oral", "value": "1.8 and 1.1"},
      {"measurement": "PD50", "setting": "P. mirabilis; subcutaneous", "value": "< 0.5 and 0.6"},
      {"measurement": "PD50", "setting": "P. aeruginosa; oral", "value": "> 200", "unit": "mg/kg"},
      {"measurement": "PD50", "setting": "P. aeruginosa; subcutaneous", "value": "> 200", "unit": "mg/kg"},
      {"measurement": "LD50", "setting": "Acute toxicity in mice; mice, i.p.", "value": "3535 mg/kg and 3150 mg/kg"},
      {"measurement": "LD50", "setting": "Acute toxicity in mice; mouse, in vivo, ip, LD50, mice", "value": 3140, "unit": "mg/kg"},
      {"measurement": "LD50", "setting": "Acute toxicity in mice; mouse, in vivo, po, LD50, mice", "value": "> 10000", "unit": "mg/kg"},
      {"measurement": "LD50", "setting": "Acute toxicity in mice; mouse, in vivo, sc, LD50, mice", "value": "> 10000", "unit": "mg/kg"}
    ]}
  ]
}
